Data reported in patent US20210270801A1, “TOPOGRAPHICALLY GUIDED CELL MIGRATION DEVICES AND METHODS” (priority 2018, published 2021).

Tested on: MCF10A cells
Assay: Impedimetric collective cell migration assay with proliferation inhibitor
Type: cell-based
Conditions: 1 ng/ml
Method: In experiments designed to validate the proper functioning of devices, systems and methods for CMAPs of the present disclosure, MCF10A cells, a non-tumorigenic mammary epithelial cell line, were chosen as the cell model to validate whether a Nafion-nanotextured substrate is suitable for cell growth and migration. Cell monolayers were grown to cover a half of the area of each well to achieve a uniform condition at the beginning of the experiment. An elastomeric silicone (polydimethylsiloxane or PDMS) block was attached to the Nafion-patterned surface in each well, and then the MCF10A cells were seeded into the notch of the PDMS block at a seeding density of 20,000 cells per well. After 24 hours of incubation, the cells grew into a cell monolayer in the cell-seeding region and the PDMS block in each well was removed to initiate an impedimetric recording of collective cell migration. Cells migrated collectively as a cell sheet in a migration direction toward the other side of the well along the direction of nanogrooves and reached the end of the nanotextured migration area after 60-hour of migration.
Additional validation studies were carried out to determine whether collective cell migration behaviors are affected by the nanotextured cell-interface surface, which mimics the topography of in vivo cell migration microenvironment. MCF10A cells were grown on both nanotextured and untextured surfaces and the distances between the cell sheet border at 0 hour and 60 hours were measured.
Identifying effective drugs that target tumor metastasis is one of the ultimate goals of cancer migration assays. For this reason, a CMAP of the present disclosure was used to assess its capability to detect drug effects by using widely applied inhibitors. In this experiment, 1 ng/ml mitomycin C was used to inhibit MCF10A cell proliferation to determine whether collective cell migration is still faster on Nafion-nanotextured surfaces than on the untextured surfaces, after eliminating proliferation as a confounding factor.

CO[C@@]12[C@H](COC(N)=O)C3=C(C(=O)C(C)=C(N)C3=O)N1C[C@@H]1N[C@@H]12 [mitomycin C]
collective migration (Nafion-nanotextured (NP) surface, compared with UP untreated, P<0.05): continued to migrate with alacrity, even outpacing their UP untreated counterparts
collective migration after proliferation inhibition (both nanotextured (NP) and untextured (UP) groups, impedance at 10 kHz): substantially slowed but did not inhibit collective migration
collective migration / change in impedance over the duration (untextured (UP) surface): migrated minimally as expected with no significant change in impedance
